According to patent publication US12611387B2, “Compound and composition for inducing neuroprotection” (REST THERAPEUTICS, priority 2020, dated 2026):

System: viable neurons in the CA1 area of the hippocampus
Assay: Quantification of viable neurons in area CA1 (cresyl violet)
Format: in vivo
Details: 0.3 mg/Kg i.p., oligomer-intoxicated mice (not shown)
Method: The neuroprotective effect of the compounds, i.e. the ability thereof to protect cells from Aβ25-35 oligomer neurotoxicity and neurodegeneration, is also tested (FIG. 10). The test compounds are thus administered on the same day as the injection of the Aβ25-35 oligomers and are continued to be administered on a daily basis up to day 7 after the injection of the oligomers, at which time the mice are subjected to the YMT, PAT, MWT or ORT. The brain's anatomy is analysed and neuronal cells are counted by immunohistochemistry on mice sacrificed at D13. The biochemical analyses for the quantification of markers of oxidative stress and apoptosis were carried out at D16 on a group of mice that had been subjected to the WMT (FIG. 10). […]
In Alzheimer's patients, a decrease in neurons has been reported in the CA1 region (and to a lesser extent in the CA3 region). […] In order to quantify viable neurons in the CA1 region of the mouse hippocampus, the corresponding sections were stained with cresyl violet (0.12%, Sigma-Aldrich), dehydrated with ethanol, treated with xylene and mounted with a mounting medium (Mountex medium, BDH Laboratory Supplies) and dried at 24° C. at ambient temperature. The images were recorded and analysed (Nanozoomer virtual microscopy system, Hamamatsu, Massy, France). […]

NC12CC3CC(C1)CC(CCF)(C3)C2 [FENM, 3-(2-fluoroethyl)adamantan-1-amine]
number of viable neurons in the CA1 area: maintained the number of viable neurons in the CA1 area of the hippocampus
thickness of the CA1 area: counteracted the increase in thickness of this area
